Data published in US11180474B2 (BRISTOL-MYERS SQUIBB COMPANY, priority 2016, dated 2021).

Molecular target: T1, human TLR9 (Homo sapiens, UniProt Q9NR96)
T1 construct: host or cells: HEK-Blue cells
T1 sequence (Q9NR96 26-1032): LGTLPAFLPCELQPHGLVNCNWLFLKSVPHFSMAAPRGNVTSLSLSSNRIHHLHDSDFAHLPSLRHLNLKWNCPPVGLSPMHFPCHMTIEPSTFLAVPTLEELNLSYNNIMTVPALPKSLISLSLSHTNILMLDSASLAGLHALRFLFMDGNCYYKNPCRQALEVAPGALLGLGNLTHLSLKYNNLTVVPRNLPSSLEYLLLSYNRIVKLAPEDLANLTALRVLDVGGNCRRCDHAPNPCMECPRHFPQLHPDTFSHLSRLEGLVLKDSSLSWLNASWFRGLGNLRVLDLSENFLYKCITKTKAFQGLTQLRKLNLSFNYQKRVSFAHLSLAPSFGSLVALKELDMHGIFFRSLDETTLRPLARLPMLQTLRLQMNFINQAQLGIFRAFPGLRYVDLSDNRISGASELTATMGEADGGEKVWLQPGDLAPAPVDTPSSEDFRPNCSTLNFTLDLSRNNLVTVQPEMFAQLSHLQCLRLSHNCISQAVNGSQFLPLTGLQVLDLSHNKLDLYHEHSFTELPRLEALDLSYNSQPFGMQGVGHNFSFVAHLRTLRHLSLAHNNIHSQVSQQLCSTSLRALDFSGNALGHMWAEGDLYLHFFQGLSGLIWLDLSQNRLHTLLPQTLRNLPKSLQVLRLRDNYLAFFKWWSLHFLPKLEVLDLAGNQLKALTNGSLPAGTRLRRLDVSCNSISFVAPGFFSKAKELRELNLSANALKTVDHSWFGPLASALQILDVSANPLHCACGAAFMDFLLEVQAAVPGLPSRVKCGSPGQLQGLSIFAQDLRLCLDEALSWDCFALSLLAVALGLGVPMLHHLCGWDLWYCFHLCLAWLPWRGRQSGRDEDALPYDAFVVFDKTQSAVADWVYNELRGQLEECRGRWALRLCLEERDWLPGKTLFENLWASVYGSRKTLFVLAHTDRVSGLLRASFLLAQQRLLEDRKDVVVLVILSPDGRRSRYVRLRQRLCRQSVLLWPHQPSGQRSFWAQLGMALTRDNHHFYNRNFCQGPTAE
Assay: TLR9 inhibition reporter assay (HEK-Blue cells, SEAP reporter, ODN2006 stimulation)
Type: cell-based
Settings: HEK-Blue cells overexpressing human TLR9, ODN2006 5 nM
Procedure, shortened: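 Compound treatment: 30 min, RT, 0.05 nM–50 μM final. Agonist: TLR7 gardiquimod 7.5 μM; TLR8 R848 15.9 μM; TLR9 ODN2006 5 nM. Incubation 22 h, 37 °C, 5% CO2. Readout SEAP, HEK-Blue Detection.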

SMILES | IC50 [µM]
COc1ccc(-c2[nH]c3ccc(C4CCN(C(=O)CN5CCC[C@H](C(=O)N6CCCC6)C5)CC4)cc3c2C(C)C)cc1OC [Example 287, (S)-1-(4-(2-(3,4-dimethoxyphenyl)-3-isopropyl-1H-indol-5-yl)piperidin-1-yl)-2-(3-(pyrrolidine-1-carbonyl)piperidin-1-yl)ethan-1-one] | 2.28
COc1ccc(-c2[nH]c3ccc(C4CCN(C(=O)CN[C@H]5CC[C@H](N)CC5)CC4)cc3c2C(C)C)cc1OC [Example 232, 2-(((1r,4r)-4-aminocyclohexyl)amino)-1-(4-(2-(3,4-dimethoxyphenyl)-3-isopropyl-1H-indol-5-yl)piperidin-1-yl)ethan-1-one] | 0.307
COc1ccc(-c2[nH]c3ccc(C4CCN(C(=O)COC(C)C)CC4)cc3c2C(C)C)cc1OC [Example 314, 1-(4-(2-(3,4-dimethoxyphenyl)-3-isopropyl-1H-indol-5-yl)piperidin-1-yl)-2-isopropoxyethan-1-one] | 26.6
COc1ccc(-c2[nH]c3ccc(C4CCN(C(=O)CNCCOCCO)CC4)cc3c2C(C)C)cc1OC [Example 230, 1-(4-(2-(3,4-dimethoxyphenyl)-3-isopropyl-1H-indol-5-yl)piperidin-1-yl)-2-((2-(2-hydroxyethoxy)ethyl)amino)ethan-1-one] | 2.2
COc1ccc(-c2[nH]c3ccc(C4CCN(C(=O)CN5CCCN(C(C)=O)CC5)CC4)cc3c2C(C)C)cc1OC [Example 222, 2-(4-acetyl-1,4-diazepan-1-yl)-1-(4-(2-(3,4-dimethoxyphenyl)-3-isopropyl-1H-indol-5-yl)piperidin-1-yl)ethan-1-one] | 6.88
COc1ccc(-c2[nH]c3ccc(C4CCN(CC(=O)NCCCO)CC4)cc3c2C(C)C)cc1OC [Example 277, 2-(4-(2-(3,4-dimethoxyphenyl)-3-isopropyl-1H-indol-5-yl)piperidin-1-yl)-N-(3-hydroxypropyl)acetamide] | 4.98
COc1ccc(-c2[nH]c3ccc(C4CCN(C(=O)CN[C@@H](CO)CC(C)C)CC4)cc3c2C(C)C)cc1OC [Example 234, (R)-1-(4-(2-(3,4-dimethoxyphenyl)-3-isopropyl-1H-indol-5-yl)piperidin-1-yl)-2-((1-hydroxy-4-methylpentan-2-yl)amino) ethan-1-one] | 1.88
COc1ccc(-c2[nH]c3ccc(C4CCN(C(=O)CN5CCC[C@@H](C(=O)N6CCC(N(C)C)CC6)C5)CC4)cc3c2C(C)C)cc1OC [Example 305, (R)-1-(4-(2-(3,4-dimethoxyphenyl)-3-isopropyl-1H-indol-5-yl)piperidin-1-yl)-2-(3-(4-(dimethylamino)piperidine-1-carbonyl)piperidin-1-yl)ethan-1-one] | 0.561
COc1ccc(-c2[nH]c3ccc(C4CCN(C(=O)CN5CCN(CC(=O)NC(C)C)CC5)CC4)cc3c2C(C)C)cc1OC [Example 229, 2-(4-(2-(4-(2-(3,4-dimethoxyphenyl)-3-isopropyl-1H-indol-5-yl)piperidin-1-yl)-2-oxoethyl)piperazin-1-yl)-N-isopropylacetamide] | 4.98
COc1ccc(-c2[nH]c3ccc(C4CCN(CC(=O)NCCO)CC4)cc3c2C(C)C)cc1OC [Example 276, 2-(4-(2-(3,4-dimethoxyphenyl)-3-isopropyl-1H-indol-5-yl)piperidin-1-yl)-N-(2-hydroxyethyl) acetamide] | 3.58
COc1ccc(-c2[nH]c3ccc(C4CCN(C(=O)CN5CCC[C@@H](C(=O)N(C)C(C)C)C5)CC4)cc3c2C(C)C)cc1OC [Example 304, (R)-1-(2-(4-(2-(3,4-dimethoxyphenyl)-3-isopropyl-1H-indol-5-yl)piperidin-1-yl)-2-oxoethyl)-N-isopropyl-N-methylpiperidine-3-carboxamide] | 2.75
COc1ccc(-c2[nH]c3ccc(C4CCN(C(=O)CN(C)C(C)C)CC4)cc3c2C(C)C)cc1OC [Example 227, 1-(4-(2-(3,4-dimethoxyphenyl)-3-isopropyl-1H-indol-5-yl)piperidin-1-yl)-2-(isopropyl(methyl)amino) ethan-1-one] | 1.73
COc1ccc(-c2[nH]c3ccc(C4CCN(C(=O)CN5CCC[C@H](C(=O)N6CC[C@H](O)C6)C5)CC4)cc3c2C(C)C)cc1OC [Example 301, 1-(4-(2-(3,4-dimethoxyphenyl)-3-isopropyl-1H-indol-5-yl)piperidin-1-yl)-2-((S)-3-((S)-3-hydroxypyrrolidine-1-carbonyl)piperidin-1-yl)ethan-1-one] | 3.12
COc1ccc(-c2[nH]c3ccc(C4CCN(C(=O)CN5CCC[C@@H](C(=O)N6C(C)CCC6C)C5)CC4)cc3c2C(C)C)cc1OC (stereo partly drawn) [Example 311, 1-(4-(2-(3,4-dimethoxyphenyl)-3-isopropyl-1H-indol-5-yl)piperidin-1-yl)-2-((3R)-3-(2,5-dimethylpyrrolidine-1-carbonyl)piperidin-1-yl)ethan-1-one] | 2.48
COc1ccc(-c2[nH]c3ccc(C4CCN(C(=O)CN5CCCN(C)CC5)CC4)cc3c2C(C)C)cc1OC [Example 239, 1-(4-(2-(3,4-dimethoxyphenyl)-3-isopropyl-1H-indol-5-yl)piperidin-1-yl)-2-(4-methyl-1,4-diazepan-1-yl)ethan-1-one] | 0.516
COc1ccc(-c2[nH]c3ccc(C4CCN(Cc5cnc[nH]5)CC4)cc3c2C(C)C)cc1OC [Example 268, 5-(1-((1H-imidazol-5-yl)methyl)piperidin-4-yl)-2-(3,4-dimethoxyphenyl)-3-isopropyl-1H-indole] | 1.48
COc1ccc(-c2[nH]c3ccc(C4CCN(C(=O)CN5CCC[C@H](C(=O)N6C(C)CCC6C)C5)CC4)cc3c2C(C)C)cc1OC (stereo partly drawn) [Example 300, 1-(4-(2-(3,4-dimethoxyphenyl)-3-isopropyl-1H-indol-5-yl)piperidin-1-yl)-2-((3S)-3-(2,5-dimethylpyrrolidine-1-carbonyl)piperidin-1-yl)ethan-1-one] | 0.321
COc1ccc(-c2[nH]c3ccc(C4CCN(C(=O)CN5CCC(O)CC5)CC4)cc3c2C(C)C)cc1OC [Example 238, 1-(4-(2-(3,4-dimethoxyphenyl)-3-isopropyl-1H-indol-5-yl)piperidin-1-yl)-2-(4-hydroxypiperidin-1-yl) ethan-1-one] | 1.42
COc1ccc(-c2[nH]c3ccc(C4CCN(C5CCN(C6CC6)CC5)CC4)cc3c2C)cc1OC [Example 23, 5-(1′-cyclopropyl-[1,4′-bipiperidin]-4-yl)-2-(3,4-dimethoxyphenyl)-3-methyl-1H-indole] | 0.154
COc1ccc(-c2[nH]c3ccc(C4CCN(C(=O)CN5CCC(N(C)C)CC5)CC4)cc3c2C(C)C)cc1OC [Example 244, 1-(4-(2-(3,4-dimethoxyphenyl)-3-isopropyl-1H-indol-5-yl)piperidin-1-yl)-2-(4-(dimethylamino)piperidin-1-yl)ethan-1-one] | 0.381
COc1ccc(-c2[nH]c3ccc(C4CCNCC4O)cc3c2C(C)C)cc1OC (single isomer, unassigned) [Example 317, 4-(2-(3,4-dimethoxyphenyl)-3-isopropyl-1H-indol-5-yl)piperidin-3-ol 2,2,2-trifluoroacetate] | 4.72
COc1ccc(-c2[nH]c3ccc(C4CCN(C(=O)CN5CCC[C@H](C(=O)N6CCN(c7cccc(C(F)(F)F)c7)CC6)C5)CC4)cc3c2C(C)C)cc1OC [Example 290, (S)-1-(4-(2-(3,4-dimethoxyphenyl)-3-isopropyl-1H-indol-5-yl)piperidin-1-yl)-2-(3-(4-(3-(trifluoromethyl)phenyl)piperazine-1-carbonyl)piperidin-1-yl)ethan-1-one] | 5.34
CCN(CC)C(=O)C1CCCN(CC(=O)N2CCC(c3ccc4[nH]c(-c5ccc(OC)c(OC)c5)c(C(C)C)c4c3)CC2)C1 (stereo not shown) [Example 248, 1-(2-(4-(2-(3,4-dimethoxyphenyl)-3-isopropyl-1H-indol-5-yl)piperidin-1-yl)-2-oxoethyl)-N,N-diethylpiperidine-3-carboxamide] | 0.163
COc1ccc(-c2[nH]c3ccc(C4CCN(Cc5cnn(C)c5)CC4)cc3c2C(C)C)cc1OC [Example 259, 2-(3,4-dimethoxyphenyl)-3-isopropyl-5-(1-((1-methyl-1H-pyrazol-4-yl)methyl)piperidin-4-yl)-1H-indole] | 2.03
COc1ccc(-c2[nH]c3ccc(C4CCN(C(=O)CN5CCC[C@@H](C(=O)N6CC7CNCC7C6)C5)CC4)cc3c2C(C)C)cc1OC (stereo partly drawn) [Example 310, 1-(4-(2-(3,4-dimethoxyphenyl)-3-isopropyl-1H-indol-5-yl)piperidin-1-yl)-2-((3R)-3-(octahydropyrrolo[3,4-c]pyrrole-2-carbonyl)piperidin-1-yl) ethan-1-one] | 5.23
